Assay results reported in patent US10772893B2, “2-(morpholin-4-yl)-1,7-naphthyridines” (BAYER PHARMA AKTIENGESELLSCHAFT, priority 2014, dated 2020).

System: HeLa cells
Test: Proliferation assay, crystal violet staining
Conditions: Homo sapiens, 96 h, read-out: Inhibition of HeLa cell proliferation, HeLa cells, 4 days incubation

IC50 [µM] | Structure (SMILES)
> 3 | COc1cccc(-c2cc(N3CCOCC3)nc3c(-c4ccn[nH]4)nccc23)c1 [Example 306, 4-(3-methoxyphenyl)-2-(morpholin-4-yl)-8-(1H-pyrazol-5-yl)-1,7-naphthyridine]
> 3 | COc1ccc(-c2cc(N3CCOCC3)nc3c(-c4ccn[nH]4)nccc23)c(OC)c1 [Example 332, 4-(2,4-dimethoxyphenyl)-2-(morpholin-4-yl)-8-(1H-pyrazol-5-yl)-1,7-naphthyridine]
0.792 | C[C@@H]1COCCN1c1cc(-c2ccsc2Cl)c2ccnc(-c3ccn[nH]3)c2n1 [Example 236, 4-(2-chlorothiophen-3-yl)-2-[(3R)-3-methylmorpholin-4-yl]-8-(1H-pyrazol-5-yl)-1,7-naphthyridine]
0.471 | C[C@@H]1COCCN1c1cc(-c2ccn(C)c2)c2ccnc(-c3ccn[nH]3)c2n1 [Example 262, 2-[(3R)-3-methylmorpholin-4-yl]-4-(1-methyl-1H-pyrrol-3-yl)-8-(1H-pyrazol-5-yl)-1,7-naphthyridine]
2.74 | NC(=O)c1ccc(-c2cc(N3CCOCC3)nc3c(-c4ccn[nH]4)nccc23)cc1 [Example 296, 4-[2-(morpholin-4-yl)-8-(1H-pyrazol-5-yl)-1,7-naphthyridin-4-yl]benzamide]
0.507 | C[C@@H]1COCCN1c1cc(-c2cccc(S(C)(=O)=O)c2F)c2ccnc(-c3ccn[nH]3)c2n1 [Example 132, 4-[2-fluoro-3-(methylsulfonyl)phenyl]-2-[(3R)-3-methylmorpholin-4-yl]-8-(1H-pyrazol-5-yl)-1,7-naphthyridine]
1.13 | Cc1csc(-c2cc(N3CCOC[C@H]3C)nc3c(-c4ccn[nH]4)nccc23)c1 [Example 239, 2-[(3R)-3-methylmorpholin-4-yl]-4-(4-methylthiophen-2-yl)-8-(1H-pyrazol-5-yl)-1,7-naphthyridine]
0.528 | C[C@@H]1COCCN1c1cc(-c2cncc3ccccc23)c2ccnc(-c3ccn[nH]3)c2n1 [Example 237, 4-(isoquinolin-4-yl)-2-[(3R)-3-methylmorpholin-4-yl]-8-(1H-pyrazol-5-yl)-1,7-naphthyridine]
0.341 | Cc1cc(-c2cc(N3CCOC[C@H]3C)nc3c(-c4ccn[nH]4)nccc23)cnc1C [Example 232, 4-(5,6-dimethylpyridin-3-yl)-2-[(3R)-3-methylmorpholin-4-yl]-8-(1H-pyrazol-5-yl)-1,7-naphthyridine]
0.4 | Cc1ccsc1-c1cc(N2CCOC[C@H]2C)nc2c(-c3ccn[nH]3)nccc12 [Example 99, 2-[(3R)-3-methylmorpholin-4-yl]-4-(3-methyl-2-thienyl)-8-(1H-pyrazol-5-yl)-1,7-naphthyridine]
> 3 | Clc1ccc(-c2cc(N3CCOCC3)nc3c(-c4ccn[nH]4)nccc23)cc1 [Example 316, 4-(4-chlorophenyl)-2-(morpholin-4-yl)-8-(1H-pyrazol-5-yl)-1,7-naphthyridine]
0.171 | C[C@@H]1COCCN1c1cc(-c2cnc3n2CCC3)c2ccnc(-c3ccn[nH]3)c2n1 [Example 118, 4-(6,7-dihydro-5H-pyrrolo[1,2-a]imidazol-3-yl)-2-[(3R)-3-methylmorpholin-4-yl]-8-(1H-pyrazol-5-yl)-1,7-naphthyridine]
1.94 | COc1cnccc1-c1cc(N2CCOC[C@H]2C)nc2c(-c3ccn[nH]3)nccc12 [Example 227, 4-(3-methoxypyridin-4-yl)-2-[(3R)-3-methylmorpholin-4-yl]-8-(1H-pyrazol-5-yl)-1,7-naphthyridine]
0.349 | C[C@@H]1COCCN1c1cc(-c2ccc(F)cc2N)c2ccnc(-c3ccn[nH]3)c2n1 [Example 131, 5-fluoro-2-{2-[(3R)-3-methylmorpholin-4-yl]-8-(1H-pyrazol-5-yl)-1,7-naphthyridin-4-yl}aniline]

Structure (SMILES) | IC50 [µM]
CN1CC=C(c2cc(N3CCOCC3)nc3c(-c4ccn[nH]4)nccc23)CC1 [Example 14, 4-(1-methyl-1,2,3,6-tetrahydropyridin-4-yl)-2-(morpholin-4-yl)-8-(1H-pyrazol-5-yl)-1,7-naphthyridine] | 1.99
